Earlier results, collected in patent US11661525B2, “Inkjet ink and inkjet recording apparatus” (KYOCERA Document Solutions Inc., priority 2020, dated 2023).
Read-outs that look alike come from different tables or passages of the source.

[1] = literature values of the octanol/water partition coefficient of representative water-soluble organic solvents

LogP [1]	LogP (octanol/water partition coefficient of the water-soluble organic solvent used in the inks (Tables 6 and 8))	SMILES
0.07	0.01	CC(CCO)CCO [3-Methyl-1,5-pentanediol]
−1.98	–	OCCOCCOCCO [Triethylene glycol]
−0.15	–	CCOCCOCCO [Diethylene glycol monoethyl ether]
0.66	–	CCCCCCC(O)CO (centres unmarked) [1,2-Octanediol]
